Assay results reported in ChEMBL document CHEMBL4725261, “Design, synthesis and evaluation of carbamate-linked uridyl-based inhibitors of human ST6Gal I” (Bioorg Med Chem, 2020).

Tests used:
[1] = molecular target: T1, Beta-galactoside alpha-2,6-sialyltransferase 1 (Homo sapiens) (UniProt P15907); test: Inhibition of recombinant human N-terminal 6His-tagged ST6Gal-1 (Glu44 to Cys406 residues) assessed as CMP production at 10 uM using CMP-Neu5Ac as donar substrate and LacNAc as acceptor by CMP-Glo luminescence microplate reader assay relative to control
T1 sequence (whole entry): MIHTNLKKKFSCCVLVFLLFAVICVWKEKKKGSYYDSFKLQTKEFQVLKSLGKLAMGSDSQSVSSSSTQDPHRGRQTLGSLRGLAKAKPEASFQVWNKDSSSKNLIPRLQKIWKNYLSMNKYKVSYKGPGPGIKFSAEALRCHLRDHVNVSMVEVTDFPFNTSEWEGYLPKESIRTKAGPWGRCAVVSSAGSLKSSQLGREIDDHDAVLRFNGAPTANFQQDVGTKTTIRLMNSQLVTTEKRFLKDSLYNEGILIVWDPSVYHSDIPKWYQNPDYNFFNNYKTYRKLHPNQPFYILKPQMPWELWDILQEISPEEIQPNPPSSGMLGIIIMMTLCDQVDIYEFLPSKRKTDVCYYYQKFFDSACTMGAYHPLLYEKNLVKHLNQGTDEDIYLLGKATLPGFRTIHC

[2] = molecular target: T1, Beta-galactoside alpha-2,6-sialyltransferase 1 (Homo sapiens); test: Binding affinity to recombinant human N-terminal 6His-tagged ST6Gal-1 (Glu44 to Cys406 residues) assessed as Km/Ki ratio

| Compound | inhibition [1] | Ratio [2] |
| --- | --- | --- |
| O=C(NC[C@H]1O[C@@H](n2ccc(=O)[nH]c2=O)[C@H](O)[C@@H]1O)OC(c1cccc(Oc2ccccc2)c1)P(=O)(O)O (stereo in doubt; 28a-(l)) | 28.2% |  |
| O=C(NC[C@H]1O[C@@H](n2ccc(=O)[nH]c2=O)[C@H](O)[C@@H]1O)OC(c1cccc(Oc2ccccc2)c1)P(=O)(O)O (stereo in doubt; 28a-(s)) | 19.9% |  |
| O=C(NC[C@H]1O[C@@H](n2ccc(=O)[nH]c2=O)[C@H](O)[C@@H]1O)OC(c1ccc(F)c(Oc2ccccc2)c1)P(=O)(O)O (stereo in doubt; 28b-(l)) | 1.8% |  |
| O=C(NC[C@H]1O[C@@H](n2ccc(=O)[nH]c2=O)[C@H](O)[C@@H]1O)OC(c1ccc(F)c(Oc2ccccc2)c1)P(=O)(O)O (stereo in doubt; 28b-(s)) | 1.1% |  |
| O=C(NC[C@H]1O[C@@H](n2ccc(=O)[nH]c2=O)[C@H](O)[C@@H]1O)OC(c1ccc(F)cc1)P(=O)(O)O (stereo in doubt; 28c-(l)) | 58.9% | 32.5 |
| O=C(NC[C@H]1O[C@@H](n2ccc(=O)[nH]c2=O)[C@H](O)[C@@H]1O)OC(c1ccc(F)cc1)P(=O)(O)O (stereo in doubt; 28c-(s)) | 34.6% | 0.1 |
| O=C(NC[C@H]1O[C@@H](n2ccc(=O)[nH]c2=O)[C@H](O)[C@@H]1O)OC(c1cccc(F)c1)P(=O)(O)O (stereo in doubt; 28d-(l)) | 18% |  |
| O=C(NC[C@H]1O[C@@H](n2ccc(=O)[nH]c2=O)[C@H](O)[C@@H]1O)OC(c1cccc(F)c1)P(=O)(O)O (stereo in doubt; 28d-(s)) | 36.6% | 1.9 |
| CCCOc1cccc(C(OC(=O)NC[C@H]2O[C@@H](n3ccc(=O)[nH]c3=O)[C@H](O)[C@@H]2O)P(=O)(O)O)c1 (stereo in doubt; 28e-(l)) | 30.9% | 1.8 |
| CCCOc1cccc(C(OC(=O)NC[C@H]2O[C@@H](n3ccc(=O)[nH]c3=O)[C@H](O)[C@@H]2O)P(=O)(O)O)c1 (stereo in doubt; 28e-(s)) | 7.2% |  |
| COc1cccc(C(OC(=O)NC[C@H]2O[C@@H](n3ccc(=O)[nH]c3=O)[C@H](O)[C@@H]2O)P(=O)(O)O)c1 (stereo in doubt; 28f-(l)) | 23.6% |  |
| COc1cccc(C(OC(=O)NC[C@H]2O[C@@H](n3ccc(=O)[nH]c3=O)[C@H](O)[C@@H]2O)P(=O)(O)O)c1 (stereo in doubt; 28f-(s)) | 29.8% |  |
| COc1ccc(C(OC(=O)NC[C@H]2O[C@@H](n3ccc(=O)[nH]c3=O)[C@H](O)[C@@H]2O)P(=O)(O)O)cc1 (stereo in doubt; 28g-(l)) | 7.1% |  |
| COc1ccc(C(OC(=O)NC[C@H]2O[C@@H](n3ccc(=O)[nH]c3=O)[C@H](O)[C@@H]2O)P(=O)(O)O)cc1 (stereo in doubt; 28g-(s)) | 18.1% |  |
| COc1ccc(C(OC(=O)NC[C@H]2O[C@@H](n3ccc(=O)[nH]c3=O)[C@H](O)[C@@H]2O)P(=O)(O)O)cc1OC1CCCC1 (stereo in doubt; 28h-(l)) | 7.9% |  |
| COc1ccc(C(OC(=O)NC[C@H]2O[C@@H](n3ccc(=O)[nH]c3=O)[C@H](O)[C@@H]2O)P(=O)(O)O)cc1OC1CCCC1 (stereo in doubt; 28h-(s)) | 12.7% |  |
| O=C(NC[C@H]1O[C@@H](n2ccc(=O)[nH]c2=O)[C@H](O)[C@@H]1O)OC(c1ccc(OC2CCCC2)cc1)P(=O)(O)O (stereo in doubt; 28i-(l)) | 78% | 3.2 |
| O=C(NC[C@H]1O[C@@H](n2ccc(=O)[nH]c2=O)[C@H](O)[C@@H]1O)OC(c1ccc(OC2CCCC2)cc1)P(=O)(O)O (stereo in doubt; 28i-(s)) | 19% | 0.7 |
| O=C(NC[C@H]1O[C@@H](n2ccc(=O)[nH]c2=O)[C@H](O)[C@@H]1O)OC(c1ccccc1)P(=O)(O)O (stereo in doubt; 28j-(l)) | 15.2% |  |
| O=C(NC[C@H]1O[C@@H](n2ccc(=O)[nH]c2=O)[C@H](O)[C@@H]1O)OC(c1ccccc1)P(=O)(O)O (stereo in doubt; 28j-(s)) | 7.1% |  |
| O=C(NC[C@H]1O[C@@H](n2ccc(=O)[nH]c2=O)[C@H](O)[C@@H]1O)OC(c1cc2ccccc2s1)P(=O)(O)O (stereo in doubt; 28k-(l)) | 13.2% |  |
| O=C(NC[C@H]1O[C@@H](n2ccc(=O)[nH]c2=O)[C@H](O)[C@@H]1O)OC(c1cc2ccccc2s1)P(=O)(O)O (stereo in doubt; 28k-(s)) | 66.4% | 4.4 |
| O=C(NC[C@H]1O[C@@H](n2ccc(=O)[nH]c2=O)[C@H](O)[C@@H]1O)OC(c1csc2ccccc12)P(=O)(O)O (stereo in doubt; 28l-(l)) | 6.9% |  |
| O=C(NC[C@H]1O[C@@H](n2ccc(=O)[nH]c2=O)[C@H](O)[C@@H]1O)OC(c1csc2ccccc12)P(=O)(O)O (stereo in doubt; 28l-(s)) | 5.9% |  |
| Nc1ccn([C@@H]2O[C@H](CNC(=O)OC(c3cccc(Oc4ccccc4)c3)P(=O)(O)O)[C@@H](O)[C@H]2O)c(=O)n1 (stereo in doubt; 30-(l)) | 6.3% |  |
| Nc1ccn([C@@H]2O[C@H](CNC(=O)OC(c3cccc(Oc4ccccc4)c3)P(=O)(O)O)[C@@H](O)[C@H]2O)c(=O)n1 (stereo in doubt; 30-(s)) | 2.2% |  |
